# Measured values reported in patent publication US20170368082A1, “FORMULATIONS OF BRINCIDOFOVIR” (priority 2016, published 2017).
# Experiment: Tissue distribution by quantitative whole-body autoradiography (QWBA)
# Format: in vivo, male Sprague Dawley and Long-Evans rats
# Conditions: for AUCall Ratio (PO/IV) / Cmax Ratio (PO/IV): 15 mg/kg, Group 7 vs Group 4
# Procedure: The study utilized 4 groups of male SD rats (albino), and 3 groups of male LE rats (pigmented); a total of 39 rats. All animals were obtained from Hilltop Lab Animals, Inc. (Scottdale, Pa.). […] Rats in Group 5 were administered a single 2-h IV infusion of [^14C]brincidofovir at a target dose of 2 mg/kg. […] Three dosing formulations (one for high dose IV, one for low dose IV, and one for PO dose) were prepared at QPS on the day of dosing. The IV formulation for Groups 1, 2, 3, and 4 contained a vehicle of 10 mM sodium phosphate buffer in 5% dextrose solution at pH 8.0(±0.1).
# Each animal, at their respective termination time points, was euthanized for QWBA analysis immediately after blood collection. One rat per time point per Group was euthanized as listed below.
# The blood samples were maintained on wet ice (approximately 4° C.) and then centrifuged to obtain plasma within 1 h of the blood collection time. Centrifuge settings were recorded in the study notebook. Duplicate aliquots of plasma (0.050 mL) were analyzed for radioactivity using direct counting by LSC, and residual plasma was stored at approximately −70° C. and was saved for possible future analysis under a separate study protocol. Residual red blood cells were discarded as radioactive waste.
# The pinna, distal limbs, hair, and tail were removed from each frozen carcass and each frozen carcass was embedded in an aqueous suspension of approximately 2% (w/v) carboxymethylcellulose and frozen into a block. The blocks were stored at approximately −20° C. prior to sectioning. Each blocked carcass was mounted on the object stage of a cryomicrotome (Leica CM3600 Cryomacrocut, Nussloch, Germany and Vibratome 9800, St. Louis, Mo.) maintained at approximately −20° C. and internal standards (3), which were plasma fortified with [^14C]-glucose at one concentration (approximately 0.05 μCi/mL), were placed into the frozen blocks, prior to sectioning, and were used for section thickness quality control. A number of whole-body sections (approximately 40 μm thick) were taken in the sagittal plane at various levels of interest using a whole-body cryomicrotome set at −20° C. Sagittal sections (20-50 μm thick) of frozen carcasses were exposed to phosphor imaging plates. Regions of images in tissues were converted to concentrations using standards. All of the major tissues, organs, and biological fluids were represented.
# Tissue concentration data was determined for the following tissues and/or contents: adipose (brown and white), adrenal gland, bile (in duct), blood (cardiac), bone, bone marrow, brain (cerebrum, cerebellum, medulla), cecum (and contents), large intestine (and contents), epididymis, esophagus, eye (uvea and lens), Harderian gland, heart, kidney (cortex and medulla), liver, lung, lymph node, pancreas, pituitary gland, prostate gland, salivary gland, seminal vesicles, skeletal muscle, skin (pigmented and non-pigmented), small intestine (and contents), stomach (gastric mucosa and contents), spleen, spinal cord, testis, thymus, thyroid, and urinary bladder (and contents).
# The imaging plate and sections were placed in light-tight exposure cassettes, in a copper-lined lead safe, for a 4-day exposure at room temperature. […] Quantification was performed by image densitometry using MCD image analysis software (v. 7.0, Interfocus Imaging Ltd) and a standard curve constructed from the integrated response [i.e., Molecular Dynamics Counts per square millimeter (MDC/mm^2)] and the nominal concentrations of the ^14C-calibration standards. The concentrations of radioactivity were expressed as the μg equivalents of [^14C]brincidofovir per gram sample (μg equiv/g). A lower limit of quantification (LLOQ) was applied to the data (See section 6.7.4).
# Tissue concentrations that fell below the LLOQ were identified as being below the quantification limit (BQL). Tissue areas that were not visualized on autoradiographic images were identified as no sample (NS) and reported as BQL.
compound,measurement,setting,value
CCCCCCCCCCCCCCCCOCCCOP(=O)(O)CO[C@H](CO)Cn1ccc(N)nc1=O [[^14C] brincidofovir],AUCall Ratio (PO/IV),Adipose (brown),0.25
same,Cmax Ratio (PO/IV),Adipose (brown),0.18
same,AUCall,"Adipose (brown), 2 h IV infusion 15 mg/kg, Group 4",96.6220 μg equiv · h/g
same,Tissue Concentration (168 h),"Adipose (brown), 2 h IV infusion 15 mg/kg, Group 4, LLOQ 0.036",0.132 μg equiv/g
same,Tissue Concentration (168 h),"Adipose (brown), PO 15 mg/kg, Group 7, LLOQ 0.034",0.037 μg equiv/g
same,AUCall,"Adipose (brown), PO 15 mg/kg, Group 7",24.3703 μg equiv · h/g
same,AUCall Ratio (PO/IV),Adipose (white),0.16
same,Cmax Ratio (PO/IV),Adipose (white),0.24
same,AUCall,"Adipose (white), 2 h IV infusion 15 mg/kg, Group 4",7.1955 μg equiv · h/g
same,Tissue Concentration (168 h),"Adipose (white), 2 h IV infusion 15 mg/kg, Group 4, LLOQ 0.036",BQL
same,Tissue Concentration (168 h),"Adipose (white), PO 15 mg/kg, Group 7, LLOQ 0.034",BQL
same,AUCall,"Adipose (white), PO 15 mg/kg, Group 7",1.1215 μg equiv · h/g
same,AUCall Ratio (PO/IV),Adrenal Gland,0.19
same,Cmax Ratio (PO/IV),Adrenal Gland,0.28
same,AUCall,"Adrenal Gland, 2 h IV infusion 15 mg/kg, Group 4",384.2580 μg equiv · h/g
same,Tissue Concentration (168 h),"Adrenal Gland, 2 h IV infusion 15 mg/kg, Group 4, LLOQ 0.036",0.49 μg equiv/g
same,Tissue Concentration (168 h),"Adrenal Gland, PO 15 mg/kg, Group 7, LLOQ 0.034",0.058 μg equiv/g
same,AUCall,"Adrenal Gland, PO 15 mg/kg, Group 7",74.5860 μg equiv · h/g
same,AUCall Ratio (PO/IV),Blood (cardiac),0.48
same,Cmax Ratio (PO/IV),Blood (cardiac),0.21
same,AUCall,"Blood (cardiac), 2 h IV infusion 15 mg/kg, Group 4",45.3555 μg equiv · h/g
same,Tissue Concentration (168 h),"Blood (cardiac), 2 h IV infusion 15 mg/kg, Group 4, LLOQ 0.036",BQL
same,Tissue Concentration (168 h),"Blood (cardiac), PO 15 mg/kg, Group 7, LLOQ 0.034",BQL
same,AUCall,"Blood (cardiac), PO 15 mg/kg, Group 7",21.9165 μg equiv · h/g
same,AUCall Ratio (PO/IV),Bone Marrow,0.35
same,Cmax Ratio (PO/IV),Bone Marrow,0.12
same,AUCall,"Bone Marrow, 2 h IV infusion 15 mg/kg, Group 4",197.3860 μg equiv · h/g
same,Tissue Concentration (168 h),"Bone Marrow, 2 h IV infusion 15 mg/kg, Group 4, LLOQ 0.036",0.232 μg equiv/g
same,Tissue Concentration (168 h),"Bone Marrow, PO 15 mg/kg, Group 7, LLOQ 0.034",0.094 μg equiv/g
same,AUCall,"Bone Marrow, PO 15 mg/kg, Group 7",68.7413 μg equiv · h/g
same,AUCall Ratio (PO/IV),Bone,0.30
same,Cmax Ratio (PO/IV),Bone,0.39
same,AUCall,"Bone, 2 h IV infusion 15 mg/kg, Group 4",6.1805 μg equiv · h/g
same,Tissue Concentration (168 h),"Bone, 2 h IV infusion 15 mg/kg, Group 4, LLOQ 0.036",BQL
same,Tissue Concentration (168 h),"Bone, PO 15 mg/kg, Group 7, LLOQ 0.034",BQL
same,AUCall,"Bone, PO 15 mg/kg, Group 7",1.8470 μg equiv · h/g
same,AUCall Ratio (PO/IV),Brain (cerebellum),0.07
same,Cmax Ratio (PO/IV),Brain (cerebellum),0.07
same,AUCall,"Brain (cerebellum), 2 h IV infusion 15 mg/kg, Group 4",12.1870 μg equiv · h/g
same,Tissue Concentration (168 h),"Brain (cerebellum), 2 h IV infusion 15 mg/kg, Group 4, LLOQ 0.036",BQL
same,Tissue Concentration (168 h),"Brain (cerebellum), PO 15 mg/kg, Group 7, LLOQ 0.034",BQL
same,AUCall,"Brain (cerebellum), PO 15 mg/kg, Group 7",0.8610 μg equiv · h/g
same,AUCall Ratio (PO/IV),Brain (cerebrum),0.08
same,Cmax Ratio (PO/IV),Brain (cerebrum),0.07
same,AUCall,"Brain (cerebrum), 2 h IV infusion 15 mg/kg, Group 4",9.1765 μg equiv · h/g
same,Tissue Concentration (168 h),"Brain (cerebrum), 2 h IV infusion 15 mg/kg, Group 4, LLOQ 0.036",BQL
same,Tissue Concentration (168 h),"Brain (cerebrum), PO 15 mg/kg, Group 7, LLOQ 0.034",BQL
same,AUCall,"Brain (cerebrum), PO 15 mg/kg, Group 7",0.7650 μg equiv · h/g
same,AUCall Ratio (PO/IV),Brain (medulla),0.06
same,Cmax Ratio (PO/IV),Brain (medulla),0.06
same,AUCall,"Brain (medulla), 2 h IV infusion 15 mg/kg, Group 4",9.7470 μg equiv · h/g
same,Tissue Concentration (168 h),"Brain (medulla), 2 h IV infusion 15 mg/kg, Group 4, LLOQ 0.036",BQL
same,Tissue Concentration (168 h),"Brain (medulla), PO 15 mg/kg, Group 7, LLOQ 0.034",BQL
same,AUCall,"Brain (medulla), PO 15 mg/kg, Group 7",0.5770 μg equiv · h/g
same,AUCall Ratio (PO/IV),Cecum,0.48
same,Cmax Ratio (PO/IV),Cecum,1.07
same,AUCall,"Cecum, 2 h IV infusion 15 mg/kg, Group 4",360.7580 μg equiv · h/g
same,Tissue Concentration (168 h),"Cecum, 2 h IV infusion 15 mg/kg, Group 4, LLOQ 0.036",0.08 μg equiv/g
same,Tissue Concentration (168 h),"Cecum, PO 15 mg/kg, Group 7, LLOQ 0.034",0.137 μg equiv/g
same,AUCall,"Cecum, PO 15 mg/kg, Group 7",174.4118 μg equiv · h/g
same,AUCall Ratio (PO/IV),Epididymis,0.33
same,Cmax Ratio (PO/IV),Epididymis,0.16
same,AUCall,"Epididymis, 2 h IV infusion 15 mg/kg, Group 4",95.0160 μg equiv · h/g
same,Tissue Concentration (168 h),"Epididymis, 2 h IV infusion 15 mg/kg, Group 4, LLOQ 0.036",0.129 μg equiv/g
same,Tissue Concentration (168 h),"Epididymis, PO 15 mg/kg, Group 7, LLOQ 0.034",0.042 μg equiv/g
same,AUCall,"Epididymis, PO 15 mg/kg, Group 7",31.1150 μg equiv · h/g
same,AUCall Ratio (PO/IV),Esophagus,0.38
same,Cmax Ratio (PO/IV),Esophagus,1.89
same,AUCall,"Esophagus, 2 h IV infusion 15 mg/kg, Group 4",73.1850 μg equiv · h/g
same,Tissue Concentration (168 h),"Esophagus, 2 h IV infusion 15 mg/kg, Group 4, LLOQ 0.036",0.041 μg equiv/g
same,Tissue Concentration (168 h),"Esophagus, PO 15 mg/kg, Group 7, LLOQ 0.034",BQL
same,AUCall,"Esophagus, PO 15 mg/kg, Group 7",27.9015 μg equiv · h/g
same,AUCall,"Eye (lens), 2 h IV infusion 15 mg/kg, Group 4",0.1545 μg equiv · h/g
same,Tissue Concentration (168 h),"Eye (lens), 2 h IV infusion 15 mg/kg, Group 4, LLOQ 0.036",BQL
same,Tissue Concentration (168 h),"Eye (lens), PO 15 mg/kg, Group 7, LLOQ 0.034",BQL
same,AUCall Ratio (PO/IV),Eye (uveal tract),0.32
same,Cmax Ratio (PO/IV),Eye (uveal tract),0.43
same,AUCall,"Eye (uveal tract), 2 h IV infusion 15 mg/kg, Group 4",51.5575 μg equiv · h/g
same,Tissue Concentration (168 h),"Eye (uveal tract), 2 h IV infusion 15 mg/kg, Group 4, LLOQ 0.036",BQL
same,Tissue Concentration (168 h),"Eye (uveal tract), PO 15 mg/kg, Group 7, LLOQ 0.034",BQL
same,AUCall,"Eye (uveal tract), PO 15 mg/kg, Group 7",16.2765 μg equiv · h/g
same,AUCall Ratio (PO/IV),Harderian Gland,0.25
same,Cmax Ratio (PO/IV),Harderian Gland,0.12
same,AUCall,"Harderian Gland, 2 h IV infusion 15 mg/kg, Group 4",257.6905 μg equiv · h/g
same,Tissue Concentration (168 h),"Harderian Gland, 2 h IV infusion 15 mg/kg, Group 4, LLOQ 0.036",0.403 μg equiv/g
same,Tissue Concentration (168 h),"Harderian Gland, PO 15 mg/kg, Group 7, LLOQ 0.034",0.11 μg equiv/g
same,AUCall,"Harderian Gland, PO 15 mg/kg, Group 7",63.7645 μg equiv · h/g
same,AUCall Ratio (PO/IV),Heart,0.54
same,Cmax Ratio (PO/IV),Heart,0.15
same,AUCall,"Heart, 2 h IV infusion 15 mg/kg, Group 4",58.1205 μg equiv · h/g
same,Tissue Concentration (168 h),"Heart, 2 h IV infusion 15 mg/kg, Group 4, LLOQ 0.036",0.062 μg equiv/g
same,Tissue Concentration (168 h),"Heart, PO 15 mg/kg, Group 7, LLOQ 0.034",0.045 μg equiv/g
same,AUCall,"Heart, PO 15 mg/kg, Group 7",31.1603 μg equiv · h/g
same,AUCall Ratio (PO/IV),Kidney Cortex,0.42
same,Cmax Ratio (PO/IV),Kidney Cortex,0.18
same,AUCall,"Kidney Cortex, 2 h IV infusion 15 mg/kg, Group 4",1919.6850 μg equiv · h/g
same,Tissue Concentration (168 h),"Kidney Cortex, 2 h IV infusion 15 mg/kg, Group 4, LLOQ 0.036",0.33 μg equiv/g
same,Tissue Concentration (168 h),"Kidney Cortex, PO 15 mg/kg, Group 7, LLOQ 0.034",0.342 μg equiv/g
same,AUCall,"Kidney Cortex, PO 15 mg/kg, Group 7",804.4980 μg equiv · h/g
same,AUCall Ratio (PO/IV),Kidney Medulla,0.48
same,Cmax Ratio (PO/IV),Kidney Medulla,0.34
same,AUCall,"Kidney Medulla, 2 h IV infusion 15 mg/kg, Group 4",717.8445 μg equiv · h/g
same,Tissue Concentration (168 h),"Kidney Medulla, 2 h IV infusion 15 mg/kg, Group 4, LLOQ 0.036",0.138 μg equiv/g
same,Tissue Concentration (168 h),"Kidney Medulla, PO 15 mg/kg, Group 7, LLOQ 0.034",0.201 μg equiv/g
same,AUCall,"Kidney Medulla, PO 15 mg/kg, Group 7",342.0130 μg equiv · h/g
same,AUCall Ratio (PO/IV),Large Intestine,0.45
same,Cmax Ratio (PO/IV),Large Intestine,0.61
same,AUCall,"Large Intestine, 2 h IV infusion 15 mg/kg, Group 4",310.7965 μg equiv · h/g
same,Tissue Concentration (168 h),"Large Intestine, 2 h IV infusion 15 mg/kg, Group 4, LLOQ 0.036",0.103 μg equiv/g
same,Tissue Concentration (168 h),"Large Intestine, PO 15 mg/kg, Group 7, LLOQ 0.034",0.06 μg equiv/g
same,AUCall,"Large Intestine, PO 15 mg/kg, Group 7",140.3313 μg equiv · h/g
same,AUCall Ratio (PO/IV),Liver,0.66
